Literature values as cited in patent publication US5296224A, “Kava-kava extract, process for the production thereof and use thereof” (Dr. Wilmar Schwabe GmbH & Co., priority 1990, dated 1994).

Experiments:
[1] = system: skin; settings: Shulgin 1973
[2] = administered as pure substance; Kretschmer, MMW 4/1970
[3] = 21° C.

Structure (SMILES) | skin-specific secondary effects [1] | effective daily dose [2] | maximum solubility in water [3] [mg/100 ml water]
COc1ccc(/C=C/C(=O)c2c(O)cc(OC)cc2OC)cc1 [flavokawin A] | skin-specific secondary effects | – | –
COc1cc(O)c(C(=O)/C=C/c2ccccc2)c(OC)c1 [flavokawin B] | skin-specific secondary effects | – | –
COC1=CC(=O)O[C@@H](/C=C/c2ccccc2)C1 [kawain] | – | about 200 mg | 2.2
